For experiment [1], the system named is gram-positive and gram-negative bacteria. Kind of experiment: Disinfection properties overall (AOAC Use-Dilution). The conditions noted are these: low concentration (e.g. 3%), pH 7. Type of experiment: cell-based. As to the method: (§1) The testing was performed in accordance with the protocols outlined in “Use-dilution Method”, Protocols 955.14, 955.15 and 964.02 described in Chapter 6 of “Official Methods of Analysis”, 16th Edition, of the Association of Official Analytical Chemists; “Germicidal and Detergent Sanitizing Action of Disinfectants”, 960.09 described in Chapter 6 of “Official Methods of Analysis”, 15th Edition, of the Association of Official Analytical Chemists; or American Society for Testing and Materials (ASTM) E 1054-91 the contents of which are herein incorporated by reference. This test is also commonly referred to as the “AOAC Use-Dilution Test Method”. Testing was conducted starting with 10^5 to 10^6 CFU/ml bacteria concentration, 10 ml of the cleaning composition described in each example and test protocol outlined in the “AOAC Use-dilution Method”.

The next experiment concerns P. aeruginosa. Kind of experiment: AOAC Use-Dilution disinfection test, P. aeruginosa. Type of experiment: cell-based, Pseudomonas aeruginosa. As to the method:
as §1

The subject of a further experiment is S. aureus. Kind of experiment: AOAC Use-Dilution disinfection test, S. aureus. Format: cell-based, Staphylococcus aureus. As to the method:
as §1

The next experiment relates to S. choleraesuis. Nature of the experiment: AOAC Use-Dilution disinfection test, S. choleraesuis. Type of experiment: cell-based, Salmonella choleraesuis. As to the method:
as §1

[2] abbreviates: pH 4.4, time 0 min (starting count).
Setting [3] is: pH 7.7, time 0 min (starting count).

In the case of `CC(C)O` [isopropanol, Isopropanol], in experiment [1], the “disinfectant property, in words” value is “slight disinfectant property”.

Regarding hydrogen peroxide [3% H2O2], the “P. aeruginosa (CFU/ml)” value in the experiment with P. aeruginosa (setting [2]) is given as 1.7 × 10^5 CFU/ml; with P. aeruginosa (setting [3]), 1.5 × 10^5 CFU/ml. Also, the “killing gram positive bacteria (Staphylococus aureus), in words” value in the experiment on S. aureus (acidic pH) and in the experiment on S. aureus (neutral pH) was “not effective” each time. The “S. aureus (CFU/ml)” value in the experiment on S. aureus (setting [2]) is listed as 1.6 × 10^5 CFU/ml; with S. aureus (pH 4.4, time 5 min, average from two replicates), 4.3 × 10^3 *^1 CFU/ml; in the experiment on S. aureus (setting [3]), 1.3 × 10^5 CFU/ml; in the experiment with S. aureus (pH 7.7, time 5 min), 6.0 × 10^2 CFU/ml. The “S. choleraesuis (CFU/ml)” value with S. choleraesuis (setting [2]) is 2.9 × 10^5 CFU/ml; in the experiment with S. choleraesuis (setting [3]), 2.4 × 10^5 CFU/ml.

(Values after US20100055198A1, “HARD SURFACE CLEANING AND DISINFECTING COMPOSITION” (Arkema Inc., priority 2007, published 2010).)
